Results reported in US11091478B2 (Fochon Pharmaceuticals, Ltd., priority 2017, dated 2021).
Read-outs that look alike come from different tables or passages of the source.

Key:
RS4;11 cells = assay: Cell proliferation assay (MTS), RS4;11 cells, 72 h; format: cell-based
Procedure, shortened: (§1)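 Proliferation was scored by MTS (2 h, then SDS stop, A490 with 650 nm reference) and IC50 derived. Compound ran at nine final concentrations from 1.5 to 10000 nM. DOHH2 were incubated 120 h and RS4;11 72 h, both plated at 5000 cells/well in RPMI-1640 plus 10% FBS.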

DOHH2 cells = assay: Cell proliferation assay (MTS), DOHH2 cells, 120 h; format: cell-based
Procedure, shortened: as §1

| SMILES | IC50 (RS4;11 cells; Homo sapiens, RS4-11, 72 h) [nM] | IC50 (RS4;11 cells) [nM] | IC50 (DOHH2 cells; Homo sapiens, DOHH-2, 120 h) [nM] | IC50 (DOHH2 cells) [nM] |
| --- | --- | --- | --- | --- |
| CC1(C)CCC(c2ccc(Cl)cc2)=C(CN2CCN(c3ccc(C(=O)NS(=O)(=O)c4cc5c(c([N+](=O)[O-])c4)N[C@H](COC4CCOCC4)CO5)c(Oc4cnc5[nH]ccc5c4)c3)CC2)C1 [Example 2-234, (R)-2-((1H-pyrrolo[2,3-b]pyridin-5-yl)oxy)-4-(4-((4′-chloro-4,4-dimethyl-3,4,5,6-tetra-hydro-[1,1′-biphenyl]-2-yl)methyl)piperazin-1-yl)-N-((5-nitro-3-(((tetrahydro-2H-pyran-4-yl)oxy)methyl)-3,4-dihydro-2H-benzo [b][1,4]oxazin-7-yl)sulfonyl)benzamide] | 14 | – | 6 | – |
| CC(C)OC[C@H]1COc2cc(S(=O)(=O)NC(=O)c3ccc(N4CCN(CC5=C(c6ccc(Cl)cc6)CC(C)(C)CC5)CC4)cc3Oc3cnc4[nH]ccc4c3)cc([N+](=O)[O-])c2N1 [Example 2-237, (S)-2-((1H-pyrrolo[2,3-b]pyridin-5-yl)oxy)-4-(4-((4′-chloro-5,5-dimethyl-3,4,5,6-tetra-hydro-[1,1′-biphenyl]-2-yl)methyl)piperazin-1-yl)-N-((3-(isopropoxymethyl)-5-nitro-3,4-dihydro-2H-benzo[b][1,4]oxazin-7-yl)sulfonyl)benzamide] | 14 | – | 3 | – |
| COC1CCC(C[C@H]2COc3cc(S(=O)(=O)NC(=O)c4ccc(N5CCN(CC6=C(c7ccc(Cl)cc7)CC(C)(C)CC6)CC5)cc4Oc4cnc5[nH]ccc5c4)cc([N+](=O)[O-])c3N2)CC1 (stereo partly drawn) [Example 2-246B, (S)-2-((1H-pyrrolo[2,3-b]pyridin-5-yl)oxy)-4-(4-((4′-chloro-5,5-dimethyl-3,4,5,6-tetra-hydro-[1,1′-biphenyl]-2-yl)methyl)piperazin-1-yl)-N-((3-((4-methoxycyclohexyl)meth-yl)-5-nitro-3,4-dihydro-2H-benzo[b][1,4]oxa-zin-7-yl)sulfonyl)benzamide] | 29 | – | 13 | – |
| COC1CCC([C@H]2COc3cc(S(=O)(=O)NC(=O)c4ccc(N5CCN(CC6=C(c7ccc(Cl)cc7)CC(C)(C)CC6)CC5)cc4Oc4cnc5[nH]ccc5c4)cc([N+](=O)[O-])c3N2)CC1 (some centres unmarked) [Example 2-247A] | 24 | – | 19 | – |
| COC1CCC([C@H]2COc3cc(S(=O)(=O)NC(=O)c4ccc(N5CCN(CC6=C(c7ccc(Cl)cc7)CC(C)(C)CC6)CC5)cc4Oc4cnc5[nH]ccc5c4)cc([N+](=O)[O-])c3N2)CC1 (stereo partly drawn) [Example 2-247B, (S)-2-((1H-pyrrolo[2,3-b]pyridin-5-yl)oxy)-4-(4-((4′-chloro-5,5-dimethyl-3,4,5,6-tetra-hydro-[1,1′-biphenyl]-2-yl)methyl)piperazin-1-yl)-N-((3-(4-methoxycyclohexyl)-5-nitro-3,4-dihydro-2H-benzo[b][1,4]oxazin-7-yl)sulfonyl)benzamide] | – | 45 | – | 36 |
| COC1CCC([C@@H]2COc3cc(S(=O)(=O)NC(=O)c4ccc(N5CCN(CC6=C(c7ccc(Cl)cc7)CC(C)(C)CC6)CC5)cc4Oc4cnc5[nH]ccc5c4)cc([N+](=O)[O-])c3N2)CC1 (stereo partly drawn) [Example 2-248A, (R)-2-((1H-pyrrolo[2,3-b]pyridin-5-yl)oxy)-4-(4-((4′-chloro-5,5-dimethyl-3,4,5,6-tetra-hydro-[1,1′-biphenyl]-2-yl)methyl)piperazin-1-yl)-N-((3-(4-methoxycyclohexyl)-5-nitro-3,4-dihydro-2H-benzo[b][1,4]oxazin-7-yl)sulfonyl)benzamide] | 35 | – | 27 | – |
| COC1CCC([C@@H]2COc3cc(S(=O)(=O)NC(=O)c4ccc(N5CCN(CC6=C(c7ccc(Cl)cc7)CC(C)(C)CC6)CC5)cc4Oc4cnc5[nH]ccc5c4)cc([N+](=O)[O-])c3N2)CC1 (stereo partly drawn) [Example 2-248B, (R)-2-((1H-pyrrolo[2,3-b]pyridin-5-yl)oxy)-4-(4-((4′-chloro-5,5-dimethyl-3,4,5,6-tetra-hydro-[1,1′-biphenyl]-2-yl)methyl)piperazin-1-yl)-N-((3-(4-methoxycyclohexyl)-5-nitro-3,4-dihydro-2H-benzo[b][1,4]oxazin-7-yl)sulfonyl)benzamide] | – | 64 | – | 14 |
| CO[C@H]1CC[C@H](OC[C@@H]2COc3cc(S(=O)(=O)NC(=O)c4ccc(N5CCN(CC6=C(c7ccc(Cl)cc7)CCC(C)(C)C6)CC5)cc4Oc4cnc5[nH]ccc5c4)cc([N+](=O)[O-])c3N2)CC1 [Example 2-252, 2-((1H-pyrrolo[2,3-b]pyridin-5-yl)oxy)-4-(4-((4′-chloro-4,4-dimethyl-3,4,5,6-tetrahydro-[1,1′-biphenyl]-2-yl)methyl)piperazin-1-yl)-N-(((R)-3-((((1r,4R)-4-methoxycyclo-hexyl)oxy)methyl)-5-nitro-3,4-dihydro-2H-benzo[b][1,4]oxazin-7-yl)sulfonyl)benzamide] | 29 | – | 83 | – |

More lines, main results first:

| IC50 (RS4;11 cells; Homo sapiens, RS4-11, 72 h) [nM] | IC50 (RS4;11 cells) [nM] | SMILES | IC50 (DOHH2 cells; Homo sapiens, DOHH-2, 120 h) [nM] | IC50 (DOHH2 cells) [nM] |
| --- | --- | --- | --- | --- |
| 10 | – | CC1(C)CCC(c2ccc(Cl)cc2)=C(CN2CCN(c3ccc(C(=O)NS(=O)(=O)c4cc5c(c([N+](=O)[O-])c4)N[C@@H](CC4CCOCC4)CO5)c(Oc4cnc5[nH]ccc5c4)c3)CC2)C1 [Example 2-235, (S)-2-((1H-pyrrolo[2,3-b]pyridin-5-yl)oxy)-4-(4-((4′-chloro-4,4-dimethyl-3,4,5,6-tetra-hydro-[1,1′-biphenyl]-2-yl)methyl)piperazin-1-yl)-N-((5-nitro-3-((tetrahydro-2H-pyran-4-yl)methyl)-3,4-dihdyro-2H-benzo[b] [1,4]oxazin-7-yl)sulfonyl)benzamide] | 23 | – |
| 1 | – | CC(C)OC[C@@H]1COc2cc(S(=O)(=O)NC(=O)c3ccc(N4CCN(CC5=C(c6ccc(Cl)cc6)CC(C)(C)CC5)CC4)cc3Oc3cnc4[nH]ccc4c3)cc([N+](=O)[O-])c2N1 [Example 2-236, (R)-2-((1H-pyrrolo[2,3-b]pyridin-5-yl)oxy)-4-(4-((4′-chloro-5,5-dimethyl-3,4,5,6-tetra-hydro-[1,1′-biphenyl]-2-yl)methyl)piperazin-1-yl)-N-((3-(isopropoxymethyl)-5-nitro-3,4-dihydro-2H-benzo[b][1,4]oxazin-7-yl)sulfonyl)benzamide] | 6 | – |
| 9 | – | CC1(C)CCC(CN2CCN(c3ccc(C(=O)NS(=O)(=O)c4cc5c(c([N+](=O)[O-])c4)N[C@H](C4CCCCC4)CO5)c(Oc4cnc5[nH]ccc5c4)c3)CC2)=C(c2ccc(Cl)cc2)C1 [Example 2-238, (R)-2-((1H-pyrrolo[2,3-b]pyridin-5-yl)oxy)-4-(4-((4′-chloro-5,5-dimethyl-3,4,5,6-tetra-hydro-[1,1′-biphenyl]-2-yl)methyl)piperazin-1-yl)-N-((3-cyclohexyl-5-nitro-3,4-dihydro-2H-benzo[b][1,4]oxazin-7-yl)sulfo-nyl)benzamide] | 18 | – |
| 4 | – | CC1(C)CCC(CN2CCN(c3ccc(C(=O)NS(=O)(=O)c4cc5c(c([N+](=O)[O-])c4)N[C@@H](COC4CC4)CO5)c(Oc4cnc5[nH]ccc5c4)c3)CC2)=C(c2ccc(Cl)cc2)C1 [Example 2-241, (S)-2-((1H-pyrrolo[2,3-b]pyridin-5-yl)oxy)-4-(4-((4′-chloro-5,5-dimethyl-3,4,5,6-tetra-hydro-[1,1′-biphenyl]-2-yl)methyl)piperazin-1-yl)-N-((3-(cyclopropoxymethyl)-5-nitro-3,4-dihydro-2H-benzo[b][1,4]oxazin-7-yl)sulfonyl)benzamide] | 11 | – |
| 9 | – | CC1(C)CCC(c2ccc(Cl)cc2)=C(CN2CCN(c3ccc(C(=O)NS(=O)(=O)c4cc5c(c([N+](=O)[O-])c4)N[C@H](CO[C@H]4CC[C@H](O)CC4)CO5)c(Oc4cnc5[nH]ccc5c4)c3)CC2)C1 [Example 2-243, 2-((1H-pyrrolo[2,3-b]pyridin-5-yl)oxy)-4-(4-((4′-chloro-4,4-dimethyl-3,4,5,6-tetrahydro-[1,1′-biphenyl]-2-yl)methyl)piperazin-1-yl)-N-(((R)-3-((((1r,4R)-4-hydroxycyclo-hexyl)oxy)methyl)-5-nitro-3,4-dihydro-2H-benzo[b][1,4]oxazin-7-yl)sulfonyl)benzamide] | 1 | – |
| 1 | – | CC1(C)CCC(CN2CCN(c3ccc(C(=O)NS(=O)(=O)c4cc5c(c([N+](=O)[O-])c4)N[C@@H](C4CCC(O)CC4)CO5)c(Oc4cnc5[nH]ccc5c4)c3)CC2)=C(c2ccc(Cl)cc2)C1 (stereo partly drawn) [Example 2-245A, (S)-2-((1H-pyrroo[2,3-b]pyridin-5-yl)oxy)-4-(4-((4′-chloro-5,5-dimethyl-3,4,5,6-tetra-hydro-[1,1′-biphenyl]-2-yl)methyl)piperazin-1-yl)-N-((3-(4-hydroxycyclohexyl)-5-nitro-3,4-dihydro-2H-benzo[b][1,4]oxazin-7-yl)sulfonyl)benzamide] | 1 | – |
| 1 | – | CC1(C)CCC(CN2CCN(c3ccc(C(=O)NS(=O)(=O)c4cc5c(c([N+](=O)[O-])c4)N[C@H](CO[C@H]4CC[C@H](O)CC4)CO5)c(Oc4cnc5[nH]ccc5c4)c3)CC2)=C(c2ccc(Cl)cc2)C1 [Example 2-250, 2-((1H-pyrrolo[2,3-b]pyridin-5-yl)oxy)-4-(4-((4′-chloro-5,5-dimethyl-3,4,5,6-tetrahydro-[1,1′-biphenyl]-2-yl)methyl)piperazin-1-yl)-N-(((R)-3-((((1r,4R)-4-hydroxycyclo-hexyl)oxy)methyl)-5-nitro-3,4-dihydro-2H-benzo[b][1,4]oxazin-7-yl)sulfonyl)benzamide] | 7 | – |
| 1 | – | CO[C@H]1CC[C@H](OC[C@@H]2COc3cc(S(=O)(=O)NC(=O)c4ccc(N5CCN(CC6=C(c7ccc(Cl)cc7)CC(C)(C)CC6)CC5)cc4Oc4cnc5[nH]ccc5c4)cc([N+](=O)[O-])c3N2)CC1 [Example 2-251, 2-((1H-pyrrolo[2,3-b]pyridin-5-yl)oxy)-4-(4-((4′-chloro-5,5-dimethyl-3,4,5,6-tetrahydro-[1,1′-biphenyl]-2-yl)methyl)piperazin-1-yl)-N-(((R)-3-((((1r,4R)-4-methoxycyclohex-yl)oxy)methyl)-5-nitro-3,4-dihydro-2H-benzo[b][1,4]oxazin-7-yl)sulfonyl)benzamide] | 44 | – |
